# Measurements reported in patent US20120015331A1, “SCAFFOLD” (priority 2009, published 2012).
# Structures can show the parent of a compound that is named as a salt.
# Assays:
# L. Casei = experiment: Bacterial killing assay (PDT, Example 5); type: cell-based; settings: 22 μM erythrosine in BHI broth
# Experimental: L. Casei is a known constituent of gut microflora. A growth curve for L. Casei both in the presence and without erythrosine was prepared using broth turbidity measured by spectrophotometry using a Shimadzu UV-1601 UV-Visible spectrophotometer. L. Casei were grown in Brain Heart Infusion (BHI) liquid broth at 37° C. to stationary phase overnight. A fresh volume of BHI broth containing erythrosine released from the scaffold at a concentration known to be effective for PDT was inoculated using the stationary phase culture and incubated at 37° C. in a shaking incubator. Bacteria were also incubated in BHI with non scaffold derived erythrosine, BHI containing an equal concentration of scaffold breakdown products from a non erythrosine containing scaffold or blank scaffold and BHI alone with no additives. Since bacteria are most sensitive to PDT during log phase this was chosen as the time most appropriate for irradiation therefore irradiation took place 2 hours 30 minutes after inoculation. […] Following irradiation bacterial viability was assessed by spreading broth samples on Columbia blood agar plates and following 48 hour incubation counting the number of visible colonies. The number of colony forming units (cfu)/ml of broth were then calculated. […]
# L casei = L casei cultures in BHI with additives, foil-wrapped or exposed to light (Example 16); type: cell-based
# Experimental: Pieces of blank PGA scaffold and PGA scaffold containing 5 w/w % erythrosine B were incubated overnight in BHI and the scaffold was removed before adding L Casei culture, the erythrosine B concentration was measured and adjusted to 22 μM. For each of the ‘media’ shown in Table 1, two tubes of culture, one tube wrapped in foil, were exposed to light for 30 minutes. After exposure to light, serial dilutions were made of the cultures in BHI which were then grown on Columbian blood agar plates for 48 hours. The number of colonies on the plates was then counted and those having between 30 and 300 colonies were used to calculate the cfu/ml for the cultures. […] PDT (erythrosine plus light) causes 6 logs of cell kill, whereas in the presence of glycolic acid released from the scaffold (or added to a similar concentration out of a bottle), the amount of cell killing doubles or more.
structure (smiles),measurement,setting,value
"O=C1OC2(c3ccccc31)c1cc(I)c(O)c(I)c1Oc1c2cc(I)c(O)c1I [Erythrosin B, disodium salt of 2′,4,′5,′7′-tetraiodofluorescein]",log10 kill,L. Casei; 10 minutes irradiation,6.1 log10
same,log10 kill,L. Casei; 30 minute irradiation,6.4 log10
same,cell kill by PDT (erythrosine plus light),"L casei; 22 μM, light for 30 minutes",6 logs
same,"colony forming units, culture tubes wrapped in foil and exposed to light (F)","L casei; BHI, 30 minutes, foil-wrapped, erythrosin 22 μM where present",2.75 × 10^8 cfu/ml
same,"colony forming units, culture tubes exposed to light (L)","L casei; BHI, exposed to light for 30 minutes, erythrosin 22 μM where present",2.1 × 10^2 cfu/ml
